The record followed here is patent US20140127159A1, “HCV Combination Therapy” (Stella ApS, priority 2011, published 2014).

Several values for one entry are separate records, joined by “and”; a condition that tells them apart may be missing. Equal entries are not always repeated. Entries after “also recorded” stand apart in the source; their conditions may differ. Where two headings read alike, the source gives them in different places.

In series [1] the test system is HCV genotype Ib replicon in Huh-luc/neoET cells. The class given is cell-based. The note with it: for Efficacy, Antagonism vol: in combination with miravirsen (SPC3649), 95% confidence interval, median (≧3 experiments) or individual values. The method, then: (§1) The anti-viral efficacy and cellular toxicity of non-transfected antimiR oligonucleotide in combination with approved and experimental anti-HCV therapeutics (boceprevir or telepravir, was determined in the reporter cell line Huh-luc/neo-ET. This cell line harbors the persistently replicating I389luc-ubi-neo/NS3-3′/ET replicon containing the firefly luciferase gene-ubiquitin-neomycin phosphotransferase fusion protein and EMCV IRES driven NS3-5B HCV coding sequences containing the ET tissue culture adaptive mutations (E1202G, T1208I, and K1846T). Eight dilutions of non-transfected antimiR oligonucleotide (bracketing the calculated EC50) were evaluated in triplicate on duplicate sets of three plates with five dilutions of each of the control compounds (bracketing the calculated EC50). One set of plates was used for the determination of cellular toxicity and the other set of plates is used for the determination of anti-viral efficacy. The efficacy and toxicity results was quantified with firefly luciferase activity and XTT dye reduction, respectively, and the results of the assay is imported into the Prichard and Shipman MacSynergy II software program. The MacSynery II analysis includes calculation of the dose response of the two (or more) compounds when used alone followed by calculation of the expected additive level of antiviral inhibition or toxicity when the compounds are used together based on the individual dose response curves. The expected level of activity at each of the concentration data points is compared to the experimentally determined antiviral activity in the assay. The expected activity was subtracted from the realized activity, yielding a negative, zero or positive value.
This example was based on an in vitro evaluation of SPC3649 (miravirsen) in combination with anti-HCV drugs and experimental compounds. […] The combination antiviral assays were performed using the reporter cell line Huh-luc/neo-ET, which contains a bicistronic HCV genotype Ib replicon. Combination data were analyzed using MacSynergy II software at the 95%, confidence interval. The in vitro combination assays were designed to define the antiviral interaction of the two compounds and to determine if their interaction was synergistic or antagonistic.
The reporter cell line Huh-luc/neo-ET was obtained from Dr. Ralf Bartenschlager (Department of Molecular Virology, Hygiene Institute, University of Heidelberg, Germany) by ImQuest BioSciences. This cell line harbors the persistently replicating 1389luc-ubi-neo/NS3-3′IET replicon containing the firefly luciferase gene-ubiquitinneomycin phosphotransferase fusion protein and EMCV IRES driven NS3-5B HCV coding sequences containing the ET tissue culture adaptive mutations (E 1202G, T12081, and KI846T). […]

In series [2] the test system is Huh-luc/neo-ET. The method, then: as §1
The reporter cell line Huh-luc/neo-ET was obtained from Dr. Ralf Bartenschlager (Department of Molecular Virology, Hygiene Institute, University of Heidelberg, Germany) by ImQuest BioSciences. This cell line harbors the persistently replicating 1389luc-ubi-neo/NS3-3′IET replicon containing the firefly luciferase gene-ubiquitinneomycin phosphotransferase fusion protein and EMCV IRES driven NS3-5B HCV coding sequences containing the ET tissue culture adaptive mutations (E 1202G, T12081, and KI846T). A stock culture of the Huh-luc/neo-ET was expanded by culture in DMEM supplemented with 10% FBS, 2 mM glutamine, penicillin (100 IU/mL)/streptomycin (100 f.Ig/mL) and IX nonessential amino acids plus I mg/ml G418. Prior to plating, the cells were split 1:4 and cultured for two passages in the same medium plus 250 f.Ig/mL G418. The cells were treated with trypsin and enumerated by staining with trypan blue and seeded into 96-well tissue culture plates at a cell culture density 5.0×10^3 cells per well in a volume of 85 f.IL per well and incubated at […] in an environment of 5% CO2 for 24 hours. Six plates were established for the determination of combination efficacy (EC50) and cytotoxicity (TC50) for each of the compound combinations (three plates each for efficacy and toxicity). […] Following incubation, the plates were assessed for anti-HCV activity by measurement of luciferase reporter activity and cellular cytotoxicity by XTT staining.

Series [3] concerns HCV genotype 1b replicon NS3 R155K. Briefly: Transient transfection replicon assay in Huh 7 cells, NS3 R155K. The format is cell-based. The note with it: EC50 mutant / EC50 wild-type; mean of two experiments. In general terms: In antiviral work, replicon cells carry a viral genome segment that copies itself.
Experimental: (§2) Huh 7 cells were transfected with either the wild-type or the mutant RNA constructs by electroporation. Luciferase activity was measured 72 hours after compound treatment and EC50 values determined from dose-response curves. Fold resistance was expressed as the ratio of the EC50 for mutant HCV replicon to the EC50 for wild-type HCV replicon.
(§3) Huh 7 cells were transfected with either the wild type or the mutant RNA constructs by electroporation. Luciferase activity was measured 72 hours after compound treatment and EC50 values determined from dose-response curves. Fold resistance was expressed as the ratio of the EC50 for mutant HCV replicon to the EC50 for wild-type HCV replicon. Results are expressed as the mean of two individual experiments.
The subject of series [4] is HCV genotype 1b replicon NS5B S282T. Nature of the series: Transient transfection replicon assay in Huh 7 cells, NS5B S282T. The format is cell-based. The note with it: EC50 mutant / EC50 wild-type; mean of two experiments.
Series [5] relates to Huh-luc/neo-ET HCV genotype Ib replicon cells. The format is cell-based. The note with it: 28 days culture under G418 selective pressure, crystal violet. Here is the method: Cell culture and Assay setup: The reporter cell line Huh-luc/neo-ET was obtained and prepare as described previously. Cells were plated into 10 cm tissue culture dishes at a density of 3×10^5 cells per plate in culture medium containing 250 μg/ml G418 and incubated for 24 hours at 37° C. in an environment of 5% CO2. Following the 24 hour incubation, dilutions of SPC3649, SPC4729, or telaprevir were prepared in cell culture medium (as above) with 750 μg/ml G418. Each of the dilutions was added to duplicate plates and the plates were incubated at 37° C. in an environment of 5% CO^2. Two additional plates received cell culture medium with 750 μg/ml G418 as a no-treatment control. […] The final concentration of SPC4729 was 10.0 μM. […] Following 28 days of passage, one set of dishes was stained with crystal violet and the other set of plates was utilized for expansion and establishment of resistant cell culture stocks.
Huh-luc/neo-ET HCY genotype Ib replicon cells were cultured under selective pressure in the presence of 750 μg/mL G4 I8 with and without four independent fixed concentrations of SPC3649 anti-miR oligonucleotide, or telaprevir, or one concentration of scrambled oligonucleotide SPC4729 for 28 days in tissue culture plates. Duplicate tissue culture dishes were established and maintained for each culture condition. […]

Series [6] has as its system HCV genotype 1b replicon NS3 A156T. Nature of the series: Transient transfection replicon assay in Huh 7 cells, NS3 A156T. The format is cell-based. The note with it: EC50 mutant / EC50 wild-type; mean of two experiments.
Experimental: as §2, §3
In series [7] the test system is HCV genotype 1b replicon NS5B M423I. Nature of the series: Transient transfection replicon assay in Huh 7 cells, NS5B M423I. The format is cell-based. The note with it: EC50 mutant / EC50 wild-type; mean of two experiments.
Experimental: as §2, §3
Series [8] deals with HCV genotype 1b replicon NS5A Y93H. Briefly: Transient transfection replicon assay in Huh 7 cells, NS5A Y93H. The note with it: EC50 mutant / EC50 wild-type; mean of two experiments. The class given is cell-based.
Experimental: as §2, §3
The test system of series [9] is HCV genotype 1. Briefly: Phase 2a clinical trial, miravirsen monotherapy. The note with it: for mean of the maximum HCV RNA decline from baseline: 5 weekly doses subcutaneously over 29 days. The class given is in vivo, patients. The method, then: Thirty-six treatment-naïve chronic HCV genotype 1 infected patients were enrolled into 3 sequential dosing cohorts and received 5 weekly doses of miravirsen 3, 5, or 7 mg/kg (n=27) or placebo (n=9) subcutaneously over 29 days and were followed up until week 18.

For series [10], the system named is all HCV genotypes. Briefly: In vitro activity against HCV genotypes. The class given is cell-based.

As to `CCC[C@H](NC(=O)[C@@H]1[C@H]2CCC[C@H]2CN1C(=O)[C@@H](NC(=O)[C@@H](NC(=O)c1cnccn1)C1CCCCC1)C(C)(C)C)C(=O)C(=O)NC1CC1` [Telaprevir, (1S,3aR,6aS)-2-[(2S)-2-[[(2S)-2-Cyclohexyl-2-(pyrazine-2-carbonylamino)acetyl]amino]-3,3-dimethylbutanoyl]-N-[(3S)-1-(cyclopropylamino)-1,2-dioxohexan-3-yl]-3,3a,4,5,6,6a-hexahydro-1H-cyclopenta[c]pyrrole-1-carboxamide], the “Efficacy, Antagonism vol” value in series [1] is 0/−3.2 (±3.08/6.89) μM^2%. The “Efficacy, Antag Vol” value in [1] (in combination with ribavirin, 95% confidence level, individual values) is given as 37.5/22.6; μM^2%. The “Cytotoxicity, Antagonism vol” value in series [2] (in combination with miravirsen (SPC3649), 95% confidence interval) is 0/−5.05 μM^2%. Further, in [2] (in combination with ribavirin, 95% confidence level), the “Cytotoxicity, Antag Vol” value was 0.00/−50.9 μM^2%. Also, the “Fold Resistance NS3 R155K” value in [3] was determined as 4.6 fold. The “Fold Resistance NS5B S282T” value in [4] is recorded as 1.0 fold. In addition, the “distinct individual resistant clonal populations” value in series [5] was “production of distinct individual resistant clonal populations”.

For `C[C@@]1(O)[C@H](O)[C@@H](CO)O[C@H]1n1ccc(N)nc1=O` [2′-C-Methylcytidine], the “Fold Resistance NS3 A156T” value in [6] stood at 0.9 fold. For the same molecule, the “Fold Resistance NS3 R155K” value in series [3] was 0.8 fold. Also, the “Fold Resistance NS5B M423I” value in series [7] was 1.0 fold. Besides, the “Fold Resistance NS5A Y93H” value in series [8] was found to be 1.0 fold.

As for `CC(C)(C)C#Cc1cc(N(C(=O)[C@H]2CC[C@H](C)CC2)[C@H]2CC[C@H](O)CC2)c(C(=O)O)s1` [VX-222], the “Efficacy, Antagonism vol” value in series [1] was −34.44 μM^2%. In addition, the “Cytotoxicity, Synergy vol” value in series [2] (human) is recorded as 0/−28.6; 0/0 μM^2%. The “Fold Resistance NS5B M423I” value in series [7] was 4.4 fold.

Take `COC(=O)N[C@H](C(=O)N1CCC[C@H]1c1nc(-c2ccc(-c3ccc(-c4c[nH]c([C@@H]5CCCN5C(=O)[C@@H](NC(=O)OC)C(C)C)n4)cc3)cc2)c[nH]1)C(C)C` [BMS 790052, Carbamic acid, N,N′-[[1,1′-biphenyl]-4,4′-diylbis[1H-imidazole-5,2-diyl-(2S)-2,1-pyrrolidinediyl[(1S)-1-(1-methylethyl)-2-oxo-2,1-ethanediyl]]]bis-, C,C′-dimethyl ester]: in series [1], the “Efficacy, Antagonism vol” value is −24.5 μM^2% and −0.06 μM^2%. Moreover, in [2] (human), the “Cytotoxicity, Antagonism vol” value is on record as 0/−21.9 μM^2% and the “Cytotoxicity, Synergy vol” value is 0/−21.9 μM^2%. In addition, the “Fold Resistance NS5A Y93H” value in series [8] is listed as 29.9 fold.

With “5′-^mCs^ocsAs^otstsGs^oTs^ocsas^mCs^oas^mCs^ots^mCs^omC^o-3′ (CCATTGTCACACTCC; all phosphorothioate, sugars by position and methylation of C not given here; further chemistry not fully specified) [miravirsen]”, the “Fold Resistance NS3 A156T” value in series [6] was 1.0 fold. For the same molecule, in [3], the “Fold Resistance NS3 R155K” value is reported as 1.2 fold. For the same molecule, the “Fold Resistance NS5B S282T” value in series [4] is 1.9 fold. The “Fold Resistance NS5B M423I” value in [7] is on record as 1.7 fold. The “Fold Resistance NS5A Y93H” value in series [8] is given as 0.9 fold. Besides, the “distinct individual resistant clonal populations” value in series [5] (listed as SPC3649) is listed as “failed to produce distinct individual resistant clonal populations; also recorded: distinct individual resistant clonal populations were not produced”. The “mean of the maximum HCV RNA decline from baseline” value in [9] (3 mg/kg) was found to be 1.2 log10 IU/mL; in series [9] (5 mg/kg), 2.9 log10 IU/mL; in [9] (7 mg/kg) it was 3.0 log10 IU/mL. Moreover, the “safety and tolerability, adverse events” value in [9] (3, 5 or 7 mg/kg) is given as “no dose-limiting adverse events; also recorded: safe, well-tolerated”. Moreover, the “escape mutations / emergence of viral resistance” value in series [9] (HCV genome miR-122 binding sites) is listed as “no escape mutations were observed; also recorded: not seen”. For the same molecule, the “efficacy against HCV genotypes in vitro” value in series [10] is given as “effective against all HCV genotypes in vitro”.
